# Tests used:
# [1] = system: nitrergic terminations in resistance arteries of the human penis; assay: Relaxation of human penile resistance arteries induced by transmural electrical stimulation of nitrergic terminations (myograph)
# Description: (§1) To study the enhancing effect of medicinal products used to facilitate penile erection in man a series of studies were carried out of the resistance arteries of the human penis, obtained from patients submitted to penile prosthesis implantation.
# (§2) Specimens of human cavernous bodies of the penis were obtained from patients with impotence while these were intervened for prosthetic implantation, as described previously (Gupta et al.; Br. J. Pharmacol., 116: 2201, 1995). The tissues were deposited in M-400 solution (pH 7.4; 400 mOsm/kg. Composition in w/v: 4.19% manitole, 0.2% KH2PO4, 0.97% K2HPO4.3 H2O, 0.11% KCl and 0.08% NaHCO3) at 4° C. at the moment of explant and were transported to the laboratory to be used within the following 16 h.
# (§3) The resistance arteries of the penis, helicine arteries (with a luminal diameter of 150-400 μm), which are terminal branches of the deep arteries of the penis, were dissected carefully removing the surrounding trabecular tissue and were cut into 2 mm long arterial segments that were arranged on two wires of 40 μm diameter in a Halpern-Mulvany myograph (J.P. Trading, Aarhus, Denmark) to record […]. […] The arteries were contracted with 1 μM of noradrenaline and their relaxation responses were assessed after adding to the cavities increasing amounts of the different compounds. […]
# [2] = system: resistance arteries of the human penis; assay: Relaxation of noradrenaline-contracted human penile resistance arteries induced by sildenaphyl (myograph); settings: 10 μM; arteries contracted with 1 μM noradrenaline; FIG. 2
# Description: as §1, §2, §3
# [3] = system: resistance arteries of the human penis; assay: Relaxation of noradrenaline-contracted human penile resistance arteries induced by sodium nitroprussiate (myograph); settings: 10 μM; arteries contracted with 1 μM noradrenaline; FIG. 1
# Description: as §1, §2, §3
# [4] = patients; variable in different patients; cited from earlier work
SMILES,"effect on the effects of 10 nM of sildenaphyl on the relaxation produced by electrical stimulation ([1]; 10 μM combined with 10 nM sildenaphyl, increasing frequencies, FIG. 4)","effect on the relaxation produced by electrical stimulation at increasing frequencies of the nitrergic terminations ([1]; 10 μM, TES 0.5, 1, 2 and 6 Hz, FIG. 3)",effect on the relaxation produced by different concentrations of sildenaphyl [2],effect on the relaxation produced by different concentrations of sodium nitroprussiate (SNP) [3],therapeutic response [4]
"O=S(=O)([O-])c1cc(O)ccc1O.O=S(=O)([O-])c1cc(O)ccc1O.[Ca+2] [Calcium dobesylate, Calcium 2,5-dihidroxybenzenosulphonate]","increases, in a statistically significant manner, the effects of 10 nM of sildenaphyl","increases, in a statistically significant manner, the relaxation","increases, in a statistically significant manner, the relaxation","increases, in a statistically significant manner, the relaxation",
CCCc1nn(C)c2c(=O)[nH]c(-c3cc(S(=O)(=O)N4CCN(C)CC4)ccc3OCC)nc12 [sildenaphyl],,,,,≤ 50%
